The results in this text go back to patent US20210077420A1, “Methods of Treatment of Gout” (priority 2017, published 2021).

Common to all, as to assay type: physicochemical
Data set [1] in a line: Solubility enhancement of MSU crystals in phosphate buffered saline (Examples 2A, 2B). Here is the method: A phosphate buffered saline diluent was prepared by dissolving 8.2 g of NaCl and 0.68 g of KH2PO4 in 500 mL of deionised water in a 1 L flask. An NaOH solution was prepared by dissolving 0.399 g of NaOH in 100 mL of deionised water. 39.1 mL of the 0.1 M NaOH solution was then added to the 1 L flask and the volume was made up to 1 L with deionised water. The pH was adjusted to 7.4.
Approximately 5 mg of monosodium urate crystals was then suspended in 4.75 mL of the phosphate buffered saline diluent. A 0.25 mL amount of a solubility enhancer was then added to the suspension of monosodium urate crystals. […] In the case of the solubility enhancer being a mix of components, equal portions by volume of each component was added, unless indicated otherwise. This was then stirred for about 16 hours.
A sample of the supernatant was then taken, filtered using standard techniques (e.g. a syringe filter), and analysed by high-performance liquid chromatography (HPLC) to determine the concentration of uric acid/urate present in solution.

Experiment in data set [2]: as above
As to conditions: Table 3.

Data set [3] in a line: Solubility enhancement of MSU crystals in aqueous NaCl solution (Example 1). As to conditions: 16 h; for % vs control: 2.5 mL enhancer + 2.5 mL NaCl solution, control (water only) = 100%; for Concentration of urate: 2.5 mL enhancer + 2.5 mL NaCl solution (8.2 g/L), about 8 mg MSU, 25 °C, mixes equal portions by volume, control 0.043. Here is the method: A NaCl solution was prepared by dissolving 8.2 g of NaCl in 1 L of deionised water. Approximately 8 mg of monosodium urate crystals was then suspended in 2.5 mL of the NaCl solution. A 2.5 mL amount of a solubility enhancer was then added to the suspension of monosodium urate crystals. In the case of the solubility enhancer being a mix of components, equal portions by volume of each component was added. This was then mixed for about 16 hours on a roller mixer.
A sample of the supernatant was then taken, filtered using standard techniques (e.g. a syringe filter), and analysed by high-performance liquid chromatography (HPLC) to determine the concentration uric acid/MSU present in solution.
All samples were analysed using a HPLC system equipped with a variable wavelength UV detector and a reversed phase column (5 μm ODS2, 4.6 mm×150 mm, Waters Spherisorb). The mobile phase was 35 mM sodium acetate in water with pH adjusted to 5.0 using acetic acid. The flow rate was set at 1 mL/min and UV detection at a wavelength of 292 nm. Sample injection volume was 50.0 μL and all operations were carried out at 25° C. Standard solutions of MSU were made up in the range of 15-250 μg/mL and analysed as above.

Where [4] appears, read: Table 3, 5% by volume solubility enhancer in PBS.
Where [5] appears, read: 0.1% solubility enhancer in PBS.
Where [6] appears, read: Table 2, 5% by volume solubility enhancer in PBS pH 7.4, control = 100%.

As to `O=C(O)c1ccc(O)cc1` [4-hydroxybenzoic acid], the “% vs control” value is listed as 241% in data set [1] (setting [4]), 160% in data set [2] (0.05% solubility enhancer in PBS), 193% in data set [2] (setting [5]) and 205% in data set [2] (1% solubility enhancer in PBS).
For the compound `OCc1ccc(O)cc1` [4-hydroxybenzyl alcohol], the results for the “% vs control” value in data set [1] (setting [4]) and in data set [2] (1% solubility enhancer in PBS) were 190% and 151%, respectively.
As to `CN1CCCC1=O` [N-methylpyrrolidone], in data set [3], the “% vs control” value is given as 200%.
`OCCO` [Ethylene glycol]: in data set [1] (setting [6]), the “% vs control” value worked out at 112%.
As to `OCc1ccccc1` [Benzyl alcohol], the “% vs control” value in data set [1] (setting [6]) stood at 263%; in data set [2] (0.5% solubility enhancer in PBS), 152%; in data set [2] (2% solubility enhancer in PBS), 170%; in data set [2] (3% solubility enhancer in PBS), 197%; in data set [2] (4% solubility enhancer in PBS) it was 227%.
Turning to `CC(=O)OC/C=C(\C)CCC=C(C)C` [Geranyl acetate], in data set [3], the “% vs control” value is reported as 209%.
As for `CC(=O)OCC(COC(C)=O)OC(C)=O` [Triacetin], the “% vs control” value in data set [1] (setting [6]) is given as 165%; in data set [1] (setting [4]), 113%; in data set [2] (4% solubility enhancer in PBS) it was 111%.
Take `O=C(O)c1ccccc1` [Benzoic acid]: the entries for the “% vs control” value in data set [1] (setting [4]), in data set [2] (setting [5]) and in data set [2] (1% solubility enhancer in PBS) were 189%, 147% and 159%, respectively.
In the case of `CCCCCCCC/C=C\CCCCCCCC(=O)OC` [Methyl oleate], the “% vs control” value in data set [1] (setting [6]) came out at 119%.
As for Sorbitan monooleate, in data set [3], the Concentration of urate is 65 µg/mL and the “% vs control” value is 151%.
On to `CC(O)CO` (centres unmarked) [Propylene glycol], for which the “% vs control” value in data set [3] and in data set [1] (setting [6]) was 114% throughout.
Consider `O=C(O)c1ccccc1O` [Salicylic acid], for which the “% vs control” value in data set [2] (setting [5]) was determined as 281%.
On to `CCCCCCCC/C=C\CCCCCCCC(=O)O` [Oleic acid], for which the entries for the “% vs control” value in data set [2] (1% solubility enhancer in PBS) and in data set [2] (2% solubility enhancer in PBS) were 118% and 119%, respectively.
Turning to Span 85, in data set [3], the Concentration of urate came out at 57 µg/mL.
With `OCC(O)CO` [Glycerol], the entries for the “% vs control” value in data set [3] and in data set [1] (setting [6]) were 149% and 114%, respectively.
Consider `O=C(O)/C=C/C(=O)O` [Fumaric acid], for which the “% vs control” value in data set [3] came out at 151%.
